This passage reports IC50 results from patent US10774068B2, “Composition and methods for inhibiting mammalian sterile 20-like kinase 1” (The Scripps Research Institute, priority 2015, dated 2020).

Where only a bound is given, the exact number is not on record here.

Chain of MST1 (Q13043 whole entry): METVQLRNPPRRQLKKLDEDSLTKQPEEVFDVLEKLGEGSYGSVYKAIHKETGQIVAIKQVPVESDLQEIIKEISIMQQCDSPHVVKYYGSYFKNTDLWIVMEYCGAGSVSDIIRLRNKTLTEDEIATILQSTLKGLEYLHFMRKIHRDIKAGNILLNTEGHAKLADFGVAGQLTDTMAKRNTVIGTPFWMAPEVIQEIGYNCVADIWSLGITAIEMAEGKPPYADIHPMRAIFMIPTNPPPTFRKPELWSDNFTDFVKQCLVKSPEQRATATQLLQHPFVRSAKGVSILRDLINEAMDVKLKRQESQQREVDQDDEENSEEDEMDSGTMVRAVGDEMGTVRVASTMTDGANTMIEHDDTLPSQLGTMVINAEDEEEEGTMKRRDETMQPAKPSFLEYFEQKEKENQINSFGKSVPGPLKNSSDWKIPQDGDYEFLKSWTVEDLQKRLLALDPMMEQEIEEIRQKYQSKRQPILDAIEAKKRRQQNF

The experiment addresses MST1 (Homo sapiens (Human), UniProt Q13043). Description: MST1 biochemical LanthaScreen Eu Kinase Binding Assay. The note with it: read-out: Kinase Binding assay-MST1 IC50. As to the method: MST1 and MST2 biochemical LanthaScreen Eu Kinase Binding Assay was based on the binding and displacement of kinase tracer to the kinase of interest. Compounds in 1000×DMSO stock solution was dispensed using automated dispensing system (Labcyte) to 384 well Corning Microplate at 15 nL, 5 uL of Kinase buffer A was added to each well. Plates were shaken and incubated for 1 min to ensure well dissolution of compounds.
(Time-resolved FRET reads energy transfer from a long-lived donor to a nearby acceptor.)
The IC50 is the concentration that gives 50% inhibition. For `CCOc1cc2ncc(C#N)c(Nc3ccc(C#N)cc3)c2cc1NC(C)=O` [Example 129], the IC50 lay in the range of 1000 to 10000 nM. With `CCOc1cc2ncc(C#N)c(Nc3ccc(OCc4ccccn4)c(Cl)c3)c2cc1NC(=O)CCCN1CCN(C)CC1` [Example 98] the figure was < 100 nM.

For the compound `CCOc1cc2ncc(C#N)c(Nc3ccc(OCc4ncccc4-c4ccccc4)c(Cl)c3)c2cc1NC(=O)CCCN(C)C` [Example 72], the half-maximal inhibitory concentration (IC50) was 100 to 1000 nM. The same measure for `CCOc1cc2ncc(C#N)c(Nc3ccc(NCc4ccccn4)c(Cl)c3)c2cc1NC(=O)CCCN(C)C` [Example 111, N-(4-(3-chloro-4-(pyridin-2-ylmethylamino)phenylamino)-3-cyano-7-ethoxyquinolin-6-yl)-4-(dimethylamino)butanamide]: 100 to 1000 nM; for `CCOc1cc2ncc(C#N)c(Nc3ccc(OCc4cnc5cccnc5c4)c(Cl)c3)c2cc1NC(=O)CCCN(C)C` [Example 63]: 100 to 1000 nM; for `CCOc1cc2ncc(C#N)c(Nc3ccc(OCc4cccnc4)cc3)c2cc1NC(=O)CCCN(C)C` [Example 51]: 1000 to 10000 nM. Consider `CCOc1cc2ncc(C#N)c(Nc3ccc(Cl)cc3)c2cc1NC(C)=O` [Example 122], for which the IC50 lay within 1000 to 10000 nM. Consider `CCOc1cc2ncc(C#N)c(Nc3ccc(OC)cc3)c2cc1NC(C)=O` [Example 121], for which the half-inhibitory concentration (IC50) lay within 100 to 1000 nM. In the case of `CCOc1cc2ncc(C#N)c(Nc3cccc(C)c3)c2cc1NC(C)=O` [Example 130], the half-maximal inhibitory concentration (IC50) fell in the range of 1000 to 10000 nM. The same measure for `CCOc1cc2ncc(C#N)c(Nc3cccc(OC)c3)c2cc1NC(C)=O` [Example 131]: 100 to 1000 nM.

On to `CCOc1cc2ncc(C#N)c(Nc3ccc(OCc4nc(C(C)C)no4)c(Cl)c3)c2cc1NC(=O)CCCN(C)C` [Example 70], for which the half-maximal inhibitory concentration (IC50) lay in the range of 100 to 1000 nM. With `CCOc1cc2ncc(C#N)c(Nc3ccc(OCCCn4cncn4)c(Cl)c3)c2cc1NC(=O)CCCN(C)C` [Example 61] the figure was 1000 to 10000 nM; with `CCOc1cc2ncc(C#N)c(Nc3ccc(NC(C)c4ccccn4)c(Cl)c3)c2cc1NC(=O)CCCN(C)C` (stereo not drawn) [Example 112], 1000 to 10000 nM. With `CCOc1cc2ncc(C#N)c(Nc3ccc(OCc4cocn4)c(Cl)c3)c2cc1NC(=O)CCCN(C)C` [Example 69], the IC50 was in the range of 100 to 1000 nM. In the case of `CCOc1cc2ncc(C#N)c(Nc3ccc(NC(C)c4ccccc4)c(Cl)c3)c2cc1NC(=O)CCCN(C)C` (stereo not drawn) [Example 114], the half-maximal inhibitory concentration (IC50) was in the range of 1000 to 10000 nM. The same measure for `CCOc1cc2ncc(C#N)c(Nc3ccc(OC)c(Cl)c3)c2cc1NC(=O)CCCN(C)C` [Example 138]: 1000 to 10000 nM; for `CCOc1cc2ncc(C#N)c(Nc3ccc(OCc4ccc(OC)cn4)c(Cl)c3)c2cc1NC(=O)CCCN(C)C` [Example 56]: 100 to 1000 nM; for `CCOc1cc2ncc(C#N)c(Nc3ccc(OCc4ccc5c(n4)OCCC5)c(Cl)c3)c2cc1NC(=O)CCCN(C)C` [Example 59]: 1000 to 10000 nM. With `CCOc1cc2ncc(C#N)c(Nc3ccc(OC)c(Cl)c3)c2cc1NC(C)=O` [Example 136] the figure was 100 to 1000 nM; with `CCOc1cc2ncc(C#N)c(Nc3ccc(OCc4cc(-c5ccc(C)cc5)on4)c(Cl)c3)c2cc1NC(=O)CCCN(C)C` [Example 73], 100 to 1000 nM. The same measure for `CCOc1cc2ncc(C#N)c(Nc3ccccc3F)c2cc1NC(C)=O` [Example 118]: 100 to 1000 nM. For `CCOc1cc2ncc(C#N)c(N(C)c3ccccc3)c2cc1NC(C)=O` [Example 116], the IC50 lay within 1000 to 10000 nM. With `CCOc1cc2ncc(C#N)c(Nc3ccc(OCc4ccccn4)c(Cl)c3)c2cc1NC(=O)CCN(C)C` [Example 96] the figure was < 100 nM. Take `CCOc1cc2ncc(C#N)c(Nc3ccc(NC(C)(C)c4ccccn4)c(Cl)c3)c2cc1NC(=O)CCCN(C)C` [Example 113]: the concentration for half-maximal inhibition (IC50) lay in the range of 1000 to 10000 nM. The same measure for `CCOc1cc2ncc(C#N)c(Nc3ccc(OCc4ccccn4)c(C)c3)c2cc1NC(=O)CCCN(C)C` [Example 48]: 100 to 1000 nM; for `CCOc1cc2ncc(C#N)c(Nc3ccc(OCc4ccccc4)c(Cl)c3)c2cc1NC(=O)CCCN(C)C` [Example 46]: 100 to 1000 nM. The same measure for `CCOc1cc2ncc(C#N)c(Nc3ccc(OCCn4ccc(C)n4)c(Cl)c3)c2cc1NC(=O)CCCN(C)C` [Example 64]: 100 to 1000 nM; for `CCOc1cc2ncc(C#N)c(Nc3ccc(OCc4ccncc4)c(Cl)c3)c2cc1NC(=O)CCCN(C)C` [Example 50]: 1000 to 10000 nM. Turning to `CCOc1cc2ncc(C#N)c(Nc3ccccc3)c2cc1NC(C)=O` [Example 115, N-(3-cyano-7-ethoxy-4-(phenylamino)quinolin-6-yl)acetamide], the IC50 was in the range of 1000 to 10000 nM. With `CCOc1cc2ncc(C#N)c(Nc3ccc(OCCc4c(C)noc4C)c(Cl)c3)c2cc1NC(=O)CCCN(C)C` [Example 66] the figure was 100 to 1000 nM; with `CCOc1cc2ncc(C#N)c(Nc3ccc(NC(=O)c4ccccc4)c(Cl)c3)c2cc1NC(=O)CCCN(C)C` [Example 109, N-(2-chloro-4-(3-cyano-6-(4-(dimethylamino)butanamido)-7-ethoxyquinolin-4-ylamino)phenyl)benzamide], 100 to 1000 nM. The same measure for `CCOc1cc2ncc(C#N)c(Nc3cccc(Cl)c3)c2cc1NC(=O)CCCN(C)C` [Example 137, N-(4-(3-chlorophenylamino)-3-cyano-7-ethoxyquinolin-6-yl)-4-(dimethylamino)butanamide]: 1000 to 10000 nM; for `CCOc1cc2ncc(C#N)c(Nc3ccc(OCc4cc(C(F)(F)F)ccn4)c(Cl)c3)c2cc1NC(=O)CCCN(C)C` [Example 55]: 100 to 1000 nM; for `CCOc1cc2ncc(C#N)c(Nc3ccc(OCc4ccc(C(F)(F)F)cn4)c(Cl)c3)c2cc1NC(=O)CCCN(C)C` [Example 53]: 100 to 1000 nM. Consider `CCOc1cc2ncc(C#N)c(Nc3cccc(S(C)(=O)=O)c3)c2cc1NC(C)=O` [Example 134], for which the half-maximal inhibitory concentration (IC50) lay in the range of 1000 to 10000 nM. `CCOc1cc2ncc(C#N)c(Nc3ccc(OCc4ccccn4)c(Cl)c3)c2cc1NC(=O)CC` [Example 101]: the IC50 was in the range of 1000 to 10000 nM.

For the compound `CCOc1cc2ncc(C#N)c(Nc3ccc(OCc4cccc(C(F)(F)F)n4)c(Cl)c3)c2cc1NC(=O)CCCN(C)C` [Example 54], the IC50 is 100 to 1000 nM. With `CCOc1cc2ncc(C#N)c(Nc3ccc(OCc4ccccn4)cc3)c2cc1NC(=O)CCCN(C)C` [Example 47] the figure was 100 to 1000 nM; with `CCOc1cc2ncc(C#N)c(Nc3ccc(OCc4ccc(C(=O)OC)cn4)c(Cl)c3)c2cc1NC(=O)CCCN(C)C` [Example 58], 100 to 1000 nM; with `CCOc1cc2ncc(C#N)c(Nc3ccc(OCc4cc5ncccc5o4)c(Cl)c3)c2cc1NC(=O)CCCN(C)C` [Example 71], 100 to 1000 nM. With `CCOc1cc2ncc(C#N)c(Nc3ccc(OCc4cccnn4)c(Cl)c3)c2cc1NC(=O)CCCN(C)C` [Example 68] the figure was 100 to 1000 nM. The same measure for `CCOc1cc2ncnc(Nc3ccc(OCc4ncccc4C)cc3Cl)c2cc1NC(=O)CCCN(C)C` [Example 146, N-(4-(2-chloro-4-((3-methylpyridin-2-yl)methoxy)phenylamino)-7-ethoxyquinazolin-6-yl)-4-(dimethylamino)butanamide]: 1000 to 10000 nM; for `CCOc1cc2ncc(C#N)c(Nc3ccc(OCc4cnc(C)cn4)c(Cl)c3)c2cc1NC(=O)CCCN(C)C` [Example 60]: 100 to 1000 nM; for `CCOc1cc2ncc(C#N)c(Nc3ccc(C)cc3)c2cc1NC(C)=O` [Example 120]: 100 to 1000 nM. `CCOc1ccc(COc2ccc(Nc3c(C#N)cnc4cc(OCC)c(NC(=O)CCCN(C)C)cc34)cc2Cl)nc1` [Example 57]: the IC50 is 100 to 1000 nM.
